ChEMBL document CHEMBL1800055, “Orally active MMP-1 sparing α-tetrahydropyranyl and α-piperidinyl sulfone matrix metalloproteinase (MMP) inhibitors with efficacy in cancer, arthritis, and cardiovascular disease” (J Med Chem, 2010)

Legend:
[1] = biological target: Matrix metalloproteinase-9 (Homo sapiens, UniProt P14780)
Collagenase 3 = Collagenase 3 (Homo sapiens, UniProt P45452)
[2] = biological target: 72 kDa type IV collagenase (Homo sapiens, UniProt P08253)
Interstitial collagenase = biological target: T1, Interstitial collagenase (Homo sapiens, UniProt P03956); format: cell-based, HT-1080
T1 sequence (P03956 whole entry): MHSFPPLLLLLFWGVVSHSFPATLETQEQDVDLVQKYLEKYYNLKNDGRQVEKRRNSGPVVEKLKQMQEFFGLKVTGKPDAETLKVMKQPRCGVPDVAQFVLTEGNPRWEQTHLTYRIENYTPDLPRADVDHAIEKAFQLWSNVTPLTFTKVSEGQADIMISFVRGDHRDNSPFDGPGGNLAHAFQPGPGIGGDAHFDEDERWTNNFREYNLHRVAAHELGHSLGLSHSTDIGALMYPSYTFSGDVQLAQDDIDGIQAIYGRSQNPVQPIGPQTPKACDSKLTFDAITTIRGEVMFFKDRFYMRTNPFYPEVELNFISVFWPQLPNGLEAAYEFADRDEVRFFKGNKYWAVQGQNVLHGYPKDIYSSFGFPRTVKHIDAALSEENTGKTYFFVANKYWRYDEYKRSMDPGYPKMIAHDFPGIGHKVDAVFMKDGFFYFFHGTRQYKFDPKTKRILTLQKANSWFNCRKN

Stromelysin-1 = Stromelysin-1 (Homo sapiens, UniProt P08254)
Stromelysin-1, sequence (P08254 whole entry): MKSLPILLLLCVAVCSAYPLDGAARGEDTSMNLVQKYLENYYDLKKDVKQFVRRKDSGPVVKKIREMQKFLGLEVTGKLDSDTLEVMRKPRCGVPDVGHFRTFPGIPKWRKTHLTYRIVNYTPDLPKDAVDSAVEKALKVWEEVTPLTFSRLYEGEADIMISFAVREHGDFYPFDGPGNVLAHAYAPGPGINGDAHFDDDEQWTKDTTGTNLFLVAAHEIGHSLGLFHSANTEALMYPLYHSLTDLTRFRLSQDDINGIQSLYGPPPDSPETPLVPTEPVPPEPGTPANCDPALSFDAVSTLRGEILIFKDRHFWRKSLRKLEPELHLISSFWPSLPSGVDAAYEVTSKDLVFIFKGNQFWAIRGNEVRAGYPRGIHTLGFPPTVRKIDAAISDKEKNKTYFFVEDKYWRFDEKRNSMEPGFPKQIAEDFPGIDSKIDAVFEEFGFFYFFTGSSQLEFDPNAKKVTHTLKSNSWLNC

Rattus norvegicus [3] = assay: Plasma concentration in rat at 20 mg/kg, po; format: ADME, organism-based; set-up: dose 20 mg/kg, route oral; conditions: in vivo; note: time not given here
[4] = Oral bioavailability in rat at 20 mg/kg; format: ADME, organism-based; conditions: in vivo
[5] = Half life in rat at 20 mg/kg, po; format: ADME, organism-based; set-up: dose 20 mg/kg, route oral; conditions: in vivo
Neutrophil collagenase = Neutrophil collagenase (Homo sapiens, UniProt P22894)
Neutrophil collagenase, sequence (P22894 whole entry): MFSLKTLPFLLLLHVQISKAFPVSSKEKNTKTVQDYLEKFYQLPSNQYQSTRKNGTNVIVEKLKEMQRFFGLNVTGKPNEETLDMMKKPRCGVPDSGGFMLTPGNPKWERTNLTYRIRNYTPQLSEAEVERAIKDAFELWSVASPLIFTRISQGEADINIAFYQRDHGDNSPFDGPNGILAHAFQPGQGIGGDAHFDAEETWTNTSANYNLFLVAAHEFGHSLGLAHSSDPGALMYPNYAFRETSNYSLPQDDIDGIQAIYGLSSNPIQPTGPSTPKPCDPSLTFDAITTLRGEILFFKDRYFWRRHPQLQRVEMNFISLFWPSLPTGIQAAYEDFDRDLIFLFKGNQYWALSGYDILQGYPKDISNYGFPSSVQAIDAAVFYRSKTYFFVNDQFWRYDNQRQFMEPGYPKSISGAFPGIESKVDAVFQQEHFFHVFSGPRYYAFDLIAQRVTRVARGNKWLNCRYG

[6] = Cmax in rat at 20 mg/kg, po; format: ADME, organism-based; set-up: dose 20 mg/kg, route oral; conditions: in vivo
[7] = biological target: Matrix metalloproteinase-14 (Homo sapiens, UniProt P50281)
[8] = Half life in rat at 10 mg/mL, iv and po; format: ADME, organism-based; conditions: in vivo
Rattus norvegicus [9] = assay: Plasma concentration in rat at 10 mg/mL, iv and po; format: ADME, organism-based; conditions: in vivo; note: time not given here
[10] = Cmax in rat at 10 mg/mL, iv and po; format: ADME, organism-based; conditions: in vivo
[11] = Oral bioavailability in rat at 10 mg/mL; format: ADME, organism-based; conditions: in vivo

72 kDa type IV collagenase, sequence (P08253 whole entry): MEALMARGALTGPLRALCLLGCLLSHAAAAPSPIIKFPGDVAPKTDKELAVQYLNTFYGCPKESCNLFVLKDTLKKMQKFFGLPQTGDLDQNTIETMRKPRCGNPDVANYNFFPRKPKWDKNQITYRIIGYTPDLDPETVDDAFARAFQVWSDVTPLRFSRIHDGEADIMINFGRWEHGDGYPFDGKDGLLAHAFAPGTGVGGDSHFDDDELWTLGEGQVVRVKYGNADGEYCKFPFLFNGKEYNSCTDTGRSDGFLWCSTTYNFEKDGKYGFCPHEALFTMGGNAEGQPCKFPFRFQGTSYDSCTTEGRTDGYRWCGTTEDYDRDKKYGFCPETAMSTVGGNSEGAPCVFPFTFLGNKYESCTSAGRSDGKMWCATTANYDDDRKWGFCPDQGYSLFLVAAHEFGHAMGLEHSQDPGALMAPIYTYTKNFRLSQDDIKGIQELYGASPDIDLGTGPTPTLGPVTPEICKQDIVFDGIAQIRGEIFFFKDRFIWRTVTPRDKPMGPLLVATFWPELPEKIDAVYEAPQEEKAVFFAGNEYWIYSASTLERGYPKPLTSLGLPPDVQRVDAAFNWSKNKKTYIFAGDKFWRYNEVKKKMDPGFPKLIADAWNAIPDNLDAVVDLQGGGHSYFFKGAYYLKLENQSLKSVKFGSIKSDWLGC
Matrix metalloproteinase-9, sequence (P14780 whole entry): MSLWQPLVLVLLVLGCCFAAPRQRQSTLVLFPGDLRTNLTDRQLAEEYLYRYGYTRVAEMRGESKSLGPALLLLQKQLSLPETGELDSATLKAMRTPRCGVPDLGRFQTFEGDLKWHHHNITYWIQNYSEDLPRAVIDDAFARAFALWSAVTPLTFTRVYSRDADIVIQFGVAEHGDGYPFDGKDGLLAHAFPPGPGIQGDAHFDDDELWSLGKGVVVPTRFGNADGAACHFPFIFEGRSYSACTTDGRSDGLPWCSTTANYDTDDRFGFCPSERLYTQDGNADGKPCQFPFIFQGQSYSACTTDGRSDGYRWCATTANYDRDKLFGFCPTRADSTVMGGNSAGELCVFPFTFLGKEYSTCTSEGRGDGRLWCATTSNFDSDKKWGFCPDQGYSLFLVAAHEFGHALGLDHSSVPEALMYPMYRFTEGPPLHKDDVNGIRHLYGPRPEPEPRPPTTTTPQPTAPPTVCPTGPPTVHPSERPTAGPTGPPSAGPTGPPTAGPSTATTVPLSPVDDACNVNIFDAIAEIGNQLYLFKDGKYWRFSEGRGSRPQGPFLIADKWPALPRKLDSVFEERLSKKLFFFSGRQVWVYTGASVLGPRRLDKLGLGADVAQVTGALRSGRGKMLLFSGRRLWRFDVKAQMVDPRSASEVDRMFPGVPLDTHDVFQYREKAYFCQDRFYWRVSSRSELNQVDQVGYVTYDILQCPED

| IC50 [1] [nM] | IC50 (Collagenase 3) [nM] | IC50 [2] [nM] | IC50 (Interstitial collagenase) [nM] | IC50 (Stromelysin-1) [nM] | Cp (Rattus norvegicus [3]) [ng/mL] | bioavailability [4] [%] | half-life [5] [h] | IC50 (Neutrophil collagenase) [nM] | Cmax [6] [ng/mL] | IC50 [7] [nM] | half-life [8] [h] | Cp (Rattus norvegicus [9]) [ng/mL] | Cmax [10] [ng/mL] | bioavailability [11] [%] | Structure (SMILES) |
| --- | --- | --- | --- | --- | --- | --- | --- | --- | --- | --- | --- | --- | --- | --- | --- |
| 0.18 | 0.6 | < 0.1 | > 10000 | – | – | – | – | – | – | – | – | – | – | – | CN1CCC(C(=O)NO)(S(=O)(=O)c2ccc(Oc3ccc(OC(F)(F)F)cc3)cc2)CC1 |
| – | – | – | 5900 | – | 3040 | 14.7 | 1.66 | – | 3130 | – | – | – | – | – | CCOCCN1CCC(C(=O)NO)(S(=O)(=O)c2ccc(Oc3ccc(OC(F)(F)F)cc3)cc2)CC1 |
| 0.2 | 0.25 | 0.1 | 1000 | – | – | – | – | – | – | – | – | – | – | – | CCOc1ccc(Oc2ccc(S(=O)(=O)C3(C(=O)NO)CCN(C4CC4)CC3)cc2)cc1 |
| – | – | – | – | 18.1 | 72 | 4 | 1.06 | 1.6 | 159 | 9 | – | – | – | – | CC(=O)N1CCC(C(=O)NO)(S(=O)(=O)c2ccc(Oc3ccc(OC(F)(F)F)cc3)cc2)CC1 |
| < 0.1 | < 0.1 | < 0.1 | > 10000 | – | – | – | – | 0.4 | – | – | – | – | – | – | CC(C)N1CCC(C(=O)NO)(S(=O)(=O)c2ccc(Oc3ccc(OC(F)(F)F)cc3)cc2)CC1 |
| – | 0.6 | 0.2 | > 10000 | 36.9 | – | – | – | 1.4 | – | – | – | – | – | – | CCN1CCC(C(=O)NO)(S(=O)(=O)c2ccc(Oc3ccc(C(F)(F)F)cc3)cc2)CC1 |
| – | < 0.1 | < 0.1 | 4500 | – | 570 | 21.9 | 1.39 | – | 1380 | – | – | – | – | – | O=C(NO)C1(S(=O)(=O)c2ccc(Oc3ccc(OC(F)(F)F)cc3)cc2)CCN(CCO)CC1 |
| – | – | – | – | 35 | – | – | – | 0.9 | – | 10.6 | 1.87 | 1172 | 8580 | 35.9 | O=C(NO)C1(S(=O)(=O)c2ccc(Oc3ccc(OC(F)(F)F)cc3)cc2)CCOCC1 |
| – | 0.1 | < 0.1 | 10000 | – | 223 | 6.7 | 1.78 | 0.7 | 630 | – | – | – | – | – | O=C(NO)C1(S(=O)(=O)c2ccc(Oc3ccc(OC(F)(F)F)cc3)cc2)CCNCC1 |
| < 0.1 | 0.2 | < 0.1 | 2600 | – | – | – | – | – | – | – | – | – | – | – | C#CCN1CCC(C(=O)NO)(S(=O)(=O)c2ccc(Oc3ccc(OC(F)(F)F)cc3)cc2)CC1 |
| – | 1.2 | 1.7 | > 10000 | 64.7 | 150 | 12.4 | 1.88 | 2 | 540 | 160 | – | – | – | – | O=C(NO)C1(S(=O)(=O)c2ccc(Oc3ccc(C(F)(F)F)cc3)cc2)CCNCC1 |
| – | 5.5 | 0.3 | > 10000 | 40 | 429 | 48.3 | 2.08 | 1.4 | 5120 | – | – | – | – | – | CC(C)N1CCC(C(=O)NO)(S(=O)(=O)c2ccc(Oc3ccc(C(F)(F)F)cc3)cc2)CC1 |
| – | – | – | – | 0.2 | 192 | 36.9 | 1.01 | 10 | – | – | – | – | – | – | C#CCN1CCC(C(=O)NO)(S(=O)(=O)c2ccc(Oc3ccc(OC)cc3)cc2)CC1 |

The remaining lines, values behind:

| Structure (SMILES) | IC50 [1] [nM] | IC50 (Collagenase 3) [nM] | IC50 [2] [nM] | IC50 (Interstitial collagenase) [nM] | IC50 (Stromelysin-1) [nM] | Cp (Rattus norvegicus [3]) [ng/mL] | bioavailability [4] [%] | half-life [5] [h] | IC50 (Neutrophil collagenase) [nM] | Cmax [6] [ng/mL] | IC50 [7] [nM] | half-life [8] [h] | Cp (Rattus norvegicus [9]) [ng/mL] | Cmax [10] [ng/mL] | bioavailability [11] [%] |
| --- | --- | --- | --- | --- | --- | --- | --- | --- | --- | --- | --- | --- | --- | --- | --- |
| C#CCN1CCC(C(=O)NO)(S(=O)(=O)c2ccc(Oc3ccc4c(c3)OCO4)cc2)CC1 | – | 0.6 | – | 2000 | 18.1 | 134 | 30.1 | 0.843 | 1.3 | – | – | – | – | – | – |
| O=C(NO)C1(S(=O)(=O)c2ccc(Oc3ccc(Cl)c(Cl)c3)cc2)CCOCC1 | – | – | – | – | 35 | – | – | – | 4 | – | – | – | – | – | – |
| C#CCN1CCC(C(=O)NO)(S(=O)(=O)c2ccc(Oc3ccc(C(C)C)cc3)cc2)CC1 | – | 0.25 | 0.1 | > 10000 | 32.6 | 21 | 23.8 | 0.73 | 1.6 | 5310 | – | – | – | – | – |
| CC(C)Oc1ccc(Oc2ccc(S(=O)(=O)C3(C(=O)NO)CCN(C4CC4)CC3)cc2)cc1 | – | 0.1 | 0.1 | 770 | – | – | – | – | – | – | – | – | – | – | – |
| COc1ccc(Oc2ccc(S(=O)(=O)C3(C(=O)NO)CCN(Cc4ccccn4)CC3)cc2)cc1 | – | 0.3 | 0.2 | 4500 | 20.6 | 160 | – | – | 1.9 | – | – | – | – | – | – |
| CSc1ccc(Oc2ccc(S(=O)(=O)C3(C(=O)NO)CCOCC3)cc2)cc1 | < 0.1 | < 0.1 | < 0.1 | 2500 | – | – | – | – | – | – | – | – | – | – | – |
| O=C(NO)C1(S(=O)(=O)c2ccc(Oc3ccc4c(c3)OCO4)cc2)CCN(C2CC2)CC1 | < 0.1 | 0.3 | 0.5 | 1000 | – | 206 | – | – | – | 13100 | – | – | – | – | – |
| CC(C)c1ccc(Oc2ccc(S(=O)(=O)C3(C(=O)NO)CCN(C(C)C)CC3)cc2)cc1 | – | 2.7 | 1 | > 10000 | 22.5 | – | – | – | 1.8 | – | – | – | – | – | – |
| O=C(NO)C1(S(=O)(=O)c2ccc(Oc3ccncc3)cc2)CCOCC1 | – | – | 0.5 | – | – | – | – | – | – | – | – | 0.25 | 3 | 1610 | 42.3 |
| O=C(NO)C1(S(=O)(=O)c2ccc(Oc3ccc(-c4ccccc4)cc3)cc2)CCOCC1 | – | 0.25 | 0.1 | 1400 | 50 | – | – | – | 2.4 | – | – | – | – | – | – |
| O=C(NO)C1(S(=O)(=O)c2ccc(Oc3ccc(Cl)cc3)cc2)CCOCC1 | – | – | – | – | 18.1 | – | – | – | 1.2 | – | – | 1.5 | 506 | 3120 | 45.8 |
| O=C(NO)C1(S(=O)(=O)c2ccc(Oc3cccc(Cl)c3)cc2)CCOCC1 | – | – | – | – | 18.1 | – | – | – | 1.8 | – | 4.5 | – | – | – | – |
| COCCN1CCC(C(=O)NO)(S(=O)(=O)c2ccc(Oc3ccc(OC(C)C)cc3)cc2)CC1 | – | 0.5 | 0.3 | 2000 | – | – | – | – | – | – | – | – | – | – | – |
| O=C(NO)C1(S(=O)(=O)c2ccc(Oc3ccccc3)cc2)CCOCC1 | – | 0.1 | 0.1 | – | 7 | – | – | – | 0.4 | – | – | 1.74 | 50 | 872 | 5.8 |
| O=C(NO)C1(S(=O)(=O)c2ccc(Oc3ccc4c(c3)OCCO4)cc2)CCN(C2CC2)CC1 | – | 0.5 | 0.2 | 6000 | 21.5 | 15 | 16.6 | 3.3 | 1.5 | 9460 | – | – | – | – | – |
| O=C(NO)C1(S(=O)(=O)c2ccc(Oc3ccc(C(F)(F)F)cc3)cc2)CCN(CCN2CCOCC2)CC1 | – | 0.35 | 0.3 | – | – | 73 | 2.6 | 0.94 | – | 147 | – | – | – | – | – |
| COCCN1CCC(C(=O)NO)(S(=O)(=O)c2ccc(Oc3ccc(C(C)C)cc3)cc2)CC1 | – | 0.2 | 0.1 | 10000 | – | – | – | – | – | – | – | – | – | – | – |
| COCCN1CCC(C(=O)NO)(S(=O)(=O)c2ccc(Oc3ccc4c(c3)OCO4)cc2)CC1 | – | 0.2 | 0.25 | 2400 | 20 | – | – | – | 1.2 | – | 4 | – | – | – | – |
| O=C(NO)C1(S(=O)(=O)c2ccc(Oc3ccc(SC(F)(F)F)cc3)cc2)CCOCC1 | – | – | 0.4 | 5000 | – | – | – | – | 0.4 | – | – | 1.71 | 3113 | 7270 | 49 |
| O=C(NO)C1(S(=O)(=O)c2ccc(Oc3cccc(C(F)(F)F)c3)cc2)CCOCC1 | – | 0.8 | 0.8 | > 10000 | 55.3 | – | – | – | 30 | – | – | 1.12 | 257 | 1140 | 18.3 |
| O=C(NO)C1(S(=O)(=O)c2ccc(Oc3ccc(O)cc3)cc2)CCOCC1 | < 0.1 | 0.3 | 0.2 | 400 | – | – | – | – | – | – | 1.71 | – | – | – | – |
| CC(C)Oc1ccc(Oc2ccc(S(=O)(=O)C3(C(=O)NO)CCOCC3)cc2)cc1 | < 0.1 | 0.1 | < 0.1 | 300 | – | – | – | – | – | – | 10.5 | – | – | – | – |
| O=C(NO)C1(S(=O)(=O)c2ccc(Oc3ccc4c(c3)OCO4)cc2)CCNCC1 | – | – | – | – | 35 | 128 | – | – | 2.4 | 1550 | – | – | – | – | – |
